Experiment in all cases: relative viability (nuclei count vs DMSO), 5 days (fraction); higher = more cells survive
Compound in assay [1]: C1/C(=C\C2=CC=CS2)/C(=O)/C(=C/C3=CC=CS3)/C1 + CC(=O)c1c(C)c2cnc(Nc3ccc(N4CCNCC4)cn3)nc2n(C2CCCC2)c1=O [Palbociclib] (partner 0.5 µM)
The gist of the method: (§1)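 Relative viability divides the nuclei count in treated wells by that in vehicle wells. Lung cancer cell lines were seeded in 1536-well plates, dosed by pin tool the next day, and fixed and stained after 5 days in one step with final 0.05% Triton X-100, 1% formaldehyde and 1 ug/ml Hoechst. Dosing was a single drug or a fixed anchor-drug dose plus five library-drug doses (not always all listed) in √10 steps, and values are medians of duplicate plates imaged at 4×.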

Compound in the assay “TPCA-1 + Decitabine”: C1=CC(=CC=C1C2=CC(=C(S2)NC(=O)N)C(=O)N)F [TPCA-1] + Nc1ncn([C@H]2C[C@H](O)[C@@H](CO)O2)c(=O)n1 [Decitabine] (partner 2 µM)
The gist of the method: as §1

Compound in assay [2]: C[C@]12O[C@H](C[C@]1(O)CO)n1c3ccccc3c3c4c(c5c6ccccc6n2c5c31)CNC4=O [Lestaurtinib] + CS(=O)(=O)N1CCN(Cc2cc3nc(-c4cccc5[nH]ncc45)nc(N4CCOCC4)c3s2)CC1 [Pictilisib] (partner 1 µM)
In outline:
as §1

Compound in assay [3]: C[C@]12O[C@H](C[C@]1(O)CO)n1c3ccccc3c3c4c(c5c6ccccc6n2c5c31)CNC4=O [Lestaurtinib] + O=C(CCCCCCC(=O)Nc1ccccc1)NO [Vorinostat] (partner 1 µM)
The gist of the method:
as §1

Regarding UMC-11, the relative viability in assay [1] (first compound 0.2 µM) was found to be 0.308; in assay [1] (first compound 0.6325 µM), 0.367; in assay [1] (first compound 2 µM) it was 0.322; in assay [1] (first compound 6.325 µM), 0.334; in assay [1] (first compound 20 µM), 0.338; with TPCA-1 + Decitabine (first compound 0.04 µM), 0.584. Also, the relative viability with TPCA-1 + Decitabine (first compound 0.1265 µM) was 0.501; in the assay with TPCA-1 + Decitabine (first compound 0.4 µM) it was 0.792; with TPCA-1 + Decitabine (first compound 1.265 µM) it was 0.613; in the assay with TPCA-1 + Decitabine (first compound 4 µM), 0.439; in assay [2] (first compound 0.005 µM) it was 0.83; in assay [2] (first compound 0.01581 µM) it was 0.767. In addition, the relative viability in assay [2] (first compound 0.05 µM) came out at 0.415; in assay [2] (first compound 0.1581 µM), 0.366; in assay [2] (first compound 0.5 µM) it was 0.145; in assay [3] (first compound 0.005 µM), 0.367; in assay [3] (first compound 0.01581 µM), 0.36; in assay [3] (first compound 0.05 µM), 0.323. Besides, the relative viability in assay [3] (first compound 0.1581 µM) came to 0.182; in assay [3] (first compound 0.5 µM) it was 0.118.
